The values below come from patent US5145990A, “Phosphorous containing dhp enzyme inhibitors” (Merck & Co., Inc., priority 1991, dated 1992).

The target of this test is T1, renal dehydropeptidase I (renal dipeptidase, E.C. 3.4.13.11) (Sus scrofa, UniProt P22412).
T1 construct: solubilized preparation of […] isolated from hog kidneys; from tissue; host or cells: hog kidney
T1 sequence (P22412 17-409): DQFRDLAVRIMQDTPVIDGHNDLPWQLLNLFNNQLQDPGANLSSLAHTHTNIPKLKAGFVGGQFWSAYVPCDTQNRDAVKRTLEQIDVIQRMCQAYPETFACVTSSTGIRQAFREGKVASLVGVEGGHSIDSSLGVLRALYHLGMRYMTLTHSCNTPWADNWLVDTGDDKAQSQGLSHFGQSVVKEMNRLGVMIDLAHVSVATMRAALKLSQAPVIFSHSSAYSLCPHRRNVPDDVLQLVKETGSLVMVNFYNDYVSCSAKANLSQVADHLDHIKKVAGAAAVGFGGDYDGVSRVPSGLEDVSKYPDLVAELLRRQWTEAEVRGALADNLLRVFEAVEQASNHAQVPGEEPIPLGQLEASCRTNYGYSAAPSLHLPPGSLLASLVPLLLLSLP
The test is described as follows: In vitro screen: inhibition of hydrolysis of glycyldehydrophenylalanine (GDP) by solubilized renal dipeptidase. The conditions noted are these: Table I, structure II; hog kidney enzyme, GDP 0.05 mM, pH 7.1, 37° C., 275 nm. The test is classed as biochemical. On the procedure: Renal dehydropeptidase activity was first described by M. Bergmann and H. Schleich, Z. Physiol. Chem., 205, 65 (1932); see also B. J. Campbell et al., Biochem. Biophys. Acta, 118, 371 (1966) and references therein.
This measured the ability of compounds to inhibit hydrolysis of glycyldehydrophenylalanine (GDP) by a solubilized preparation of […] isolated from hog kidneys. The procedure is as follows: to a 1 ml system containing 50 mM "MOPS" (3-(N-morpholino)-propanesulfonic acid) buffer, pH 7.1 is added 5 mg of lyophilized enzyme, and the test compound at a final concentration of 0.1 mM. After a five minute incubation of 37° C., GDP is added to a final concentration of 0.05 mM. Incubation is continued for 10 minutes, at 37° C. and hydrolysis of GDP is measured by the change in optical density with time at 275 nm. Inhibition of the enzyme is gauged by comparison to a standard run containing no inhibitor and is expressed as the inhibitor binding constant K. This is the concentration of the inhibitor which achieves 50% inhibition of enzyme.

Broadly, the Ki is the dissociation constant of the complex between target and ligand, obtained from inhibition or displacement. Lower therefore signals tighter binding. `CC(C)/C=C(/CP(=O)(O)C(N)CC1CCCCC1)C(=O)O` (centres unmarked) came in with a Ki of 21 nM.

Regarding `CC(C)/C=C(\CP(=O)(O)C(N)CC1CCCCC1)C(=O)O` (centres unmarked), affinity was put at a Ki of 2.1 nM.
